Data as given in the NIST ThermoML archive (doi:10.1021/acs.jced.8b00372).
Numbers after ± are expanded uncertainties.

Details: 313.15 K, Ring tensiometer

With `O` [water] the surface tension liquid-gas was 67.2 ± 2.8 mN/m.
